Measured values taken from PubChem BioAssay AID248 (DTP/NCI, 2004).
Several values for one entry are separate records, joined by “and”; a condition that tells them apart may be missing. Equal entries are not always repeated. Inconclusive results and toxic doses are left out. Cut-off read from the data, not from the text of the source: active = T/C of 150% or more; inactive = T/C below 125%.

Test system: L1210 leukemia ip in BDF1 mice, survival T/C
Assay: NCI In Vivo Anticancer Drug Screen. Data for tumor model L1210 Leukemia (intraperitoneal) in B6D2F1 (BDF1) mice
Settings: endpoint: mean survival time, higher = longer survival
Method in brief: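 Tumor cells were implanted, animals were treated, and survival was followed. The result divides the treated measurement by the vehicle-control measurement.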

[1] = dose: 100.0 mg/kg/injection, schedule: Q01DX009 (ip), vehicle: Klucel (hydroxypropylcellulose) (HPC)
[2] = dose: 100.0 mg/kg/injection, schedule: Q04DX003 (ip), vehicle: Klucel (hydroxypropylcellulose) (HPC)
[3] = dose: 200.0 mg/kg/injection, schedule: Q01DX009 (ip), vehicle: Klucel (hydroxypropylcellulose) (HPC)
[4] = dose: 200.0 mg/kg/injection, schedule: Q04DX003 (ip), vehicle: Klucel (hydroxypropylcellulose) (HPC)
[5] = dose: 400.0 mg/kg/injection, schedule: Q01DX009 (ip), vehicle: Klucel (hydroxypropylcellulose) (HPC)
[6] = dose: 400.0 mg/kg/injection, schedule: Q04DX003 (ip), vehicle: Klucel (hydroxypropylcellulose) (HPC)
[7] = dose: 50.0 mg/kg/injection, schedule: Q01DX001 (ip), vehicle: Klucel (hydroxypropylcellulose) (HPC)
[8] = dose: 100.0 mg/kg/injection, schedule: Q01DX001 (ip), vehicle: Klucel (hydroxypropylcellulose) (HPC)
[9] = dose: 200.0 mg/kg/injection, schedule: Q01DX001 (ip), vehicle: Klucel (hydroxypropylcellulose) (HPC)
[10] = dose: 100.0 mg/kg/injection, schedule: Q04DX003 (ip), vehicle: saline with Tween-80
[11] = dose: 200.0 mg/kg/injection, schedule: Q04DX003 (ip), vehicle: saline with Tween-80
[12] = dose: 400.0 mg/kg/injection, schedule: Q04DX003 (ip), vehicle: saline with Tween-80
[13] = dose: 100.0 mg/kg/injection, schedule: Q01DX009 (ip), vehicle: saline with Tween-80
[14] = dose: 200.0 mg/kg/injection, schedule: Q01DX009 (ip), vehicle: saline with Tween-80
[15] = dose: 400.0 mg/kg/injection, schedule: Q01DX009 (ip), vehicle: saline with Tween-80
[16] = dose: 100.0 mg/kg/injection, schedule: Q01DX001 (ip), vehicle: saline
[17] = dose: 200.0 mg/kg/injection, schedule: Q01DX001 (ip), vehicle: saline
[18] = dose: 400.0 mg/kg/injection, schedule: Q01DX001 (ip), vehicle: saline

Measured: T/C

Cc1ccn(C(N)=O)n1
inactive: [1] 107 % of control | [2] 98 % of control | [3] 102 % of control | [4] 96 % of control | [5] 115 % of control | [6] 100 % of control

CC(C)(C)C1(O)CCCCC1
inactive: [1] 99 % of control | [2] 98 % of control | [3] 92 % of control | [4] 100 % of control | [5] 92 % of control | [6] 98 % of control

O=C(O)CCC(=O)CC[N+](=O)[O-]
inactive: dose: 75.0 mg/kg/injection, schedule: Q01DX001 (ip), vehicle: saline 94 % of control | dose: 150.0 mg/kg/injection, schedule: Q01DX001 (ip), vehicle: saline 97 % of control

Cc1c(N)nc(=S)[nH]c1C(=O)O
inactive: [7] 95 % of control | dose: 50.0 mg/kg/injection, schedule: Q04DX003 (ip), vehicle: Klucel (hydroxypropylcellulose) (HPC) 91 % of control | [8] 97 % of control | [2] 105 % of control | [9] 106 % of control | [4] 94 % of control

CC(C)(C)N=NC1(S(=O)(=O)c2ccccc2)CCCCC1
inactive: [2] 98 % of control | [4] 93 % of control | [6] 91 % of control

CCCCCCCCCCCCCCCC(=O)O[C@@]12C[C@@H](C)[C@@]3(O)[C@@H](C=C(CO)C[C@]4(O)C(=O)C(C)=C[C@@H]34)[C@@H]1C2(C)C
inactive: dose: 0.06 mg/kg/injection, schedule: Q01DX009 (ip), vehicle: saline 97 % of control | dose: 0.13 mg/kg/injection, schedule: Q01DX009 (ip), vehicle: saline 107 % of control | dose: 0.25 mg/kg/injection, schedule: Q01DX009 (ip), vehicle: saline 95 % of control | dose: 0.5 mg/kg/injection, schedule: Q01DX009 (ip), vehicle: saline 101 % of control

Clc1ccc(C=Nc2ccc3c(c2)Cc2ccccc2-3)cc1
inactive: [1] 90 % of control | [2] 96 % of control | [3] 93 % of control | [4] 102 % of control | [5] 92 % of control | [6] 91 % of control

CC(C)C(NC(=O)CCNC(=O)OCc1ccccc1)C(=O)OCc1ccccc1 (centres undefined)
inactive: [10] 93 % of control | [11] 92 % of control | [12] 95 % of control

Cc1cc2cc(C)c3cccc(C)c3c2c2c(C)cccc12
inactive: [1] 102 % of control | dose: 100.0 mg/kg/injection, schedule: Q04DX003 (ip), vehicle: other 95 % of control | [3] 106 % of control | dose: 200.0 mg/kg/injection, schedule: Q04DX003 (ip), vehicle: other 97 % of control | [5] 96 % of control | dose: 400.0 mg/kg/injection, schedule: Q04DX003 (ip), vehicle: other 90 % of control

O=C(O)CNC(=O)Nc1ccccc1
inactive: [13] 97 % of control | [10] 100 % of control | [14] 95 % of control | [11] 96 % of control | [15] 91 % of control | [12] 97 % of control

O=c1[nH]c(=S)[nH]c(-c2ccccc2)c1Cc1ccccc1
inactive: dose: 50.0 mg/kg/injection, schedule: Q01DX001 (ip), vehicle: saline 100 % of control | [16] 96 % of control | [17] 94 % of control | [18] 94 % of control

c1ccc2c(c1)ccc1c2ccc2cccc[n+]21
inactive: dose: 1.25 mg/kg/injection, schedule: Q01DX001 (ip), vehicle: saline 97 % of control | dose: 2.5 mg/kg/injection, schedule: Q01DX001 (ip), vehicle: saline 97 % of control | dose: 5.0 mg/kg/injection, schedule: Q01DX001 (ip), vehicle: saline 103 % of control | dose: 5.0 mg/kg/injection, schedule: Q01DX015 (ip), vehicle: saline 103 % of control | dose: 10.0 mg/kg/injection, schedule: Q01DX001 (ip), vehicle: saline 107 % of control

COc1ccc(OC)c(NC(=O)c2cccc3ccccc23)c1
inactive: dose: 50.0 mg/kg/injection, schedule: Q01DX001 (ip), vehicle: saline with Tween-80 102 % of control | dose: 100.0 mg/kg/injection, schedule: Q01DX001 (ip), vehicle: saline with Tween-80 91 % of control | [13] 93 % of control and 96 % of control | dose: 100.0 mg/kg/injection, schedule: Q04DX002 (ip), vehicle: saline with Tween-80 100 % of control and 91 % of control | [10] 95 % of control | dose: 200.0 mg/kg/injection, schedule: Q01DX001 (ip), vehicle: saline with Tween-80 95 % of control | [14] 105 % of control and 90 % of control | dose: 200.0 mg/kg/injection, schedule: Q04DX002 (ip), vehicle: saline with Tween-80 113 % of control and 91 % of control | [11] 95 % of control | [15] 87 % of control and 91 % of control | dose: 400.0 mg/kg/injection, schedule: Q04DX002 (ip), vehicle: saline with Tween-80 94 % of control and 95 % of control | [12] 94 % of control

Clc1ccc(NC(Nc2ccc(Cl)cc2)C(Cl)(Cl)Cl)cc1
inactive: [7] 93 % of control | [8] 93 % of control | [9] 90 % of control

CCc1c(O)nc2ccccn2c1=O
inactive: dose: 100.0 mg/kg/injection, schedule: Q01DX001 (ip), vehicle: carboxymethylcellulose (CMC) 98 % of control | dose: 200.0 mg/kg/injection, schedule: Q01DX001 (ip), vehicle: carboxymethylcellulose (CMC) 109 % of control | dose: 400.0 mg/kg/injection, schedule: Q01DX001 (ip), vehicle: carboxymethylcellulose (CMC) 113 % of control

Cc1cc(C(=O)O)c(CO)c(=O)n1C
inactive: dose: 100.0 mg/kg/injection, schedule: Q04DX003 (ip), vehicle: water 104 % of control | dose: 200.0 mg/kg/injection, schedule: Q04DX003 (ip), vehicle: water 104 % of control | dose: 400.0 mg/kg/injection, schedule: Q04DX003 (ip), vehicle: water 94 % of control

COc1ccc(C(C)=O)cc1CCCO
inactive: [16] 95 % of control | [17] 91 % of control | [18] 97 % of control

O=C(O)C1=CC(O)C(O)C(O)C1 (centres undefined)
inactive: dose: 100.0 mg/kg/injection, schedule: Q01DX009 (ip), vehicle: saline sonified 103 % of control | dose: 100.0 mg/kg/injection, schedule: Q01DX009 (ip), vehicle: saline 104 % of control | dose: 100.0 mg/kg/injection, schedule: Q04DX003 (ip), vehicle: saline 92 % of control | dose: 200.0 mg/kg/injection, schedule: Q01DX009 (ip), vehicle: saline sonified 86 % of control | dose: 200.0 mg/kg/injection, schedule: Q01DX009 (ip), vehicle: saline 107 % of control | dose: 200.0 mg/kg/injection, schedule: Q04DX003 (ip), vehicle: saline 100 % of control | dose: 400.0 mg/kg/injection, schedule: Q01DX009 (ip), vehicle: saline 106 % of control | dose: 400.0 mg/kg/injection, schedule: Q04DX003 (ip), vehicle: saline 97 % of control
